Source: patent US12233073B2, “Skin care formulations and skin cancer treatment” (Regents of the University of Minnesota, priority 2017, dated 2025)
Like-named read-outs stand apart in the source and are kept apart here.

Assays:
[1] = tested on: antioxidant response element (ARE) pathway; assay: Activation of the antioxidant response element (ARE) pathway; assay type: cell-based; conditions: for fold induction at 10 µg/mL: final dose 10 μg/ml; for fold induction at 50 µg/mL: final dose 50 μg/ml; for fold induction at 100 µg/mL: final dose 100 μg/ml; for Rating (ARE): third rating in cell
Procedure: (§1) Higher elastin and collagen activity is indicative of anti-wrinkling or anti-aging effects. Activation of the antioxidant response element (ARE) pathway was also evaluated. The NF-E2-related factor (Nrf2) is a critical transcription factor in oxidative stress signaling. Nrf2 binds to the ARE and serves as a master regulator in cellular defense pathways. The ARE pathway mediates the transcriptional induction of a battery of genes that help to protect the cells against oxidative damage. Activation of the ARE promoter leads to more endogenous antioxidants and cell detoxification.

UV-induced ROS = assay: Inhibition of the production of UV-induced reactive oxygen species (ROS); assay type: cell-based; conditions: read-out: % inhibition of UV-induced ROS
Procedure: The effect of the compounds of EXAMPLE 20 on inhibition of the production of reactive oxygen species (ROS), which can damage skin cells, was evaluated.

collagen 1A = assay: Induction of collagen 1A; assay type: cell-based; conditions: for fold induction at 10 µg/mL: final dose 10 μg/ml; for fold induction at 50 µg/mL: final dose 50 μg/ml; for fold induction at 100 µg/mL: final dose 100 μg/ml; for Rating (Collagen 1A): second rating in cell
Procedure: as §1

[2] = tested on: nuclear factor kappa B (NF-κB) pathway; assay: Cell-based assay of the nuclear factor kappa B (NF-κB) pathway; conditions: for Rating (inhibition of NF-κB): one rating per compound; for inhibition at 10 µg/mL / inhibition at 50 µg/mL / inhibition at 100 µg/mL: read-out: % inhibition of NF-κB
Procedure: The effect of adding anti-aging and/or anti-wrinkling compounds to the skin care formulation of EXAMPLE 18 on nuclear factor kappa B (NF-κB) mediated-inflammation was evaluated.
A cell-based assay was performed to determine the effective of each of these compounds. The assay involved the effect of each compound on the nuclear factor kappa B (NF-κB) pathway. The inhibition of NF-κB is indicative of a protective effect against aging and wrinkling.

elastin = assay: Induction of elastin; assay type: cell-based; conditions: for fold induction at 10 µg/mL: final dose 10 μg/ml; for fold induction at 50 µg/mL: final dose 50 μg/ml; for fold induction at 100 µg/mL: final dose 100 μg/ml; for Rating (Elastin): first rating in cell
Procedure: as §1

Structure (SMILES) | fold induction at 10 µg/mL [1] | fold induction at 50 µg/mL [1] | fold induction at 100 µg/mL [1] | inhibition at 10 µg/mL (UV-induced ROS) [%] | fold induction at 10 µg/mL (collagen 1A) | fold induction at 50 µg/mL (collagen 1A) | fold induction at 100 µg/mL (collagen 1A) | Rating (Collagen 1A) (collagen 1A) | Rating (inhibition of NF-κB) [2] | inhibition at 10 µg/mL [2] [%] | inhibition at 50 µg/mL [2] [%] | inhibition at 100 µg/mL [2] [%] | fold induction at 10 µg/mL (elastin) | fold induction at 50 µg/mL (elastin) | fold induction at 100 µg/mL (elastin) | Rating (Elastin) (elastin) | Rating (ARE) [1] | inhibition at 10 µg/mL (UV-induced ROS; final dose 10 μg/ml) [%] | inhibition at 50 µg/mL ([2]; final dose 50 μg/ml) [%] | inhibition at 100 µg/mL ([2]; final dose 100 μg/ml) [%] | other results
O=C(/C=C/c1ccc(O)c(O)c1)OCCc1ccccc1 [HI-6, caffeic acid phenylethyl ester] | < 1.3 | < 1.3 | < 1.3 | > 70 | < 1.3 | < 1.3 | < 1.3 | none, none, N/A | *** (high activity (56-75%)) | 64 | > 90 | > 90 | < 1.3 | < 1.3 | 2 | none, none, N/A | – | – | – | – | –
O=c1c(O)c(-c2ccc(O)cc2)oc2cc(O)ccc12 [HI-7, 3,7,4′-trihydroxyflavone] | 2 | 1.5 | < 1.3 | – | 3 | < 1.3 | < 1.3 | ****, ****, **** (very high activity (>76%)) | none | – | – | – | 3 | 2 | < 1.3 | – | ****, ****, **** (very high activity (>76%)) | ~50 | 52 | 66 | inhibition at 10 µg/mL ([2]; final dose 10 μg/ml): 9%
O=c1c(O)c(-c2cc(O)c(O)c(O)c2)oc2cc(O)cc(O)c12 [HI-8, myricetin] | < 1.3 | < 1.3 | < 1.3 | – | < 1.3 | < 1.3 | < 1.3 | none | none | – | – | – | < 1.3 | 3 | 2.8 | – | none | > 70 | 39 | 44 | % inhibition of NF-κB ([2]; final dose 10 μg/ml): none
O=c1c(O)c(-c2ccc(O)c(O)c2)oc2cc(O)c(O)c(O)c12 [HI-9, quercetagetin] | – | – | – | > 70 | – | – | – | *** (high activity (56-75%)) | none and ** (medium activity (31-55%)) | – | – | 20 | – | – | – | none | none | – | – | – | % inhibition of NF-κB ([2]; final dose 10 μg/ml): none; % inhibition of NF-κB ([2]; final dose 50 μg/ml): none
COc1cc(-c2oc3cc(O)cc(O)c3c(=O)c2O)ccc1O [HI-10, isorhamnetin] | 2 | < 1.3 | < 1.3 | – | 1.4 | < 1.3 | < 1.3 | ** (medium activity (31-55%)) | – | 45 | 52 | 43 | 1.7 | 1.8 | 4 | – | **** (very high activity (>76%)) | ~50 | – | – | –
O=c1cc(-c2ccc(O)c(O)c2)oc2cc(O)cc(O)c12 [HI-11, luteolin] | 1.5 | 5 | 2 | – | 2 | < 1.3 | < 1.3 | ****, ****, **** (very high activity (>76%)) | ** (medium activity (31-55%)) | – | – | – | 1.8 | < 1.3 | < 1.3 | – | ****, ****, **** (very high activity (>76%)) | > 70 | > 90 | > 90 | inhibition at 10 µg/mL ([2]; final dose 10 μg/ml): 54%
